Experimental data reported in ChEMBL document CHEMBL4765244, “Synthesis, bioconversion, pharmacokinetic and pharmacodynamic evaluation of N-isopropyl-oxy-carbonyloxymethyl prodrugs of CZh-226, a potent and selective PAK4 inhibitor” (Eur J Med Chem, 2020).

Columns and labels:
[1] = AUC in Wistar rat assessed as (R)-(6-chloro-4-(5-cyclopropyl-1H-pyrazol-3-ylamino)quinazolin-2-yl)(3-methylpiperazin-1-yl)methanone hydrochloride at 13.5 mg/kg, po measured upto 24 hrs by LC/MS/MS analysis; type: ADME, organism-based; parameters: route oral, dose 13.5 mg/kg, time <=24; conditions: in vivo
[2] = Toxicity in […] nude mouse harboring mouse B16F10 cells assessed as body weight loss at 25 to 50 mg/kg, po qd measured after 21 days relative to control; type: organism-based; conditions: in vivo, 504 h, dose 25-50 mg/kg, time 21 day
[3] = Volume of distribution in Wistar rat assessed as (R)-(6-chloro-4-(5-cyclopropyl-1H-pyrazol-3-ylamino)quinazolin-2-yl)(3-methylpiperazin-1-yl)methanone hydrochloride at 2.5 mg/kg, iv measured upto 24 hrs by LC/MS/MS analysis; type: ADME, organism-based; conditions: in vivo
[4] = Cmax in Wistar rat assessed as (R)-(6-chloro-4-(5-cyclopropyl-1H-pyrazol-3-ylamino)quinazolin-2-yl)(3-methylpiperazin-1-yl)methanone hydrochloride at 13.5 mg/kg, po measured upto 24 hrs by LC/MS/MS analysis; type: ADME, organism-based; parameters: route oral, dose 13.5 mg/kg, time <=24; conditions: in vivo
[5] = Half life in Wistar rat assessed as (R)-(6-chloro-4-(5-cyclopropyl-1H-pyrazol-3-ylamino)quinazolin-2-yl)(3-methylpiperazin-1-yl)methanone hydrochloride at 2.5 mg/kg, iv measured upto 24 hrs by LC/MS/MS analysis; type: ADME, organism-based; conditions: in vivo
B16-F10 [6] = assay: Antitumor activity against mouse B16F10 cells xenografted in BABL/c nude mouse assessed as reduction in tumor volume at 25 mg/kg, po qd measured after 21 days; type: functional; conditions: 504 h, time 21 day
B16-F10 [7] = assay: Antitumor activity against mouse B16F10 cells xenografted in BABL/c nude mouse assessed as reduction in tumor volume at 50 mg/kg, po qd measured after 21 days; type: functional; conditions: 504 h, time 21 day
[8] = AUC (0 to infinity) in Wistar rat assessed as (R)-(6-chloro-4-(5-cyclopropyl-1H-pyrazol-3-ylamino)quinazolin-2-yl)(3-methylpiperazin-1-yl)methanone hydrochloride at 2.5 mg/kg, iv measured upto 24 hrs by LC/MS/MS analysis; type: ADME, organism-based; parameters: route intravenous, dose 2.5 mg/kg, time <=24; conditions: in vivo
[9] = Prodrug conversion in human plasma assessed as release of active metabolite (R)-(6-chloro-4-(5-cyclopropyl-1H-pyrazol-3-ylamino)quinazolin-2-yl)(3-methylpiperazin-1-yl)methanone hydrochloride measured within 120 mins at 37 degC by HPLC analysis; type: ADME, cell-free; conditions: 2 h
HCT-116 [10] = assay: Antitumor activity against human HCT-116 cells xenografted in BABL/c nude mouse assessed as reduction in tumor weight at 50 mg/kg, po qd measured after 21 days; type: functional; conditions: HCT-116, po, 504 h, time 21 day
[11] = Stability of the compound in rat liver S9 fraction assessed as compound remaining measured after 60 mins at 37 degC by LC-MS/MS analysis; type: ADME, subcellular; conditions: read-out: Stabilty
[12] = Toxicity in […] nude mouse harboring human HCT-116 cells assessed as body weight loss at 25 to 50 mg/kg, po qd measured after 21 days relative to control; type: organism-based; conditions: in vivo, 504 h, dose 25-50 mg/kg, time 21 day
[13] = Chemical stability of the compound in pH 1.2 simulated gastric fluid buffer assessed as compound remaining measured after 2 hrs by HPLC analysis; type: physicochemical
[14] = Stability of the compound in human plasma assessed as compound remaining measured within 120 mins at 37 degC by HPLC analysis; type: ADME, cell-free; conditions: read-out: Stabilty
HCT-116 [15] = assay: Antitumor activity against human HCT-116 cells xenografted in BABL/c nude mouse assessed as reduction in tumor weight at 25 mg/kg, po qd measured after 21 days; type: functional; conditions: HCT-116, po, 504 h, time 21 day
[16] = AUC (0 to infinity) in Wistar rat assessed as (R)-(6-chloro-4-(5-cyclopropyl-1H-pyrazol-3-ylamino)quinazolin-2-yl)(3-methylpiperazin-1-yl)methanone hydrochloride at 13.5 mg/kg, po measured upto 24 hrs by LC/MS/MS analysis; type: ADME, organism-based; parameters: route oral, dose 13.5 mg/kg, time <=24; conditions: in vivo
[17] = Initial plasma concentration in Wistar rat assessed as (R)-(6-chloro-4-(5-cyclopropyl-1H-pyrazol-3-ylamino)quinazolin-2-yl)(3-methylpiperazin-1-yl)methanone hydrochloride at 2.5 mg/kg, iv measured upto 24 hrs by LC/MS/MS analysis; type: ADME, organism-based; conditions: in vivo
[18] = AUC in Wistar rat assessed as (R)-(6-chloro-4-(5-cyclopropyl-1H-pyrazol-3-ylamino)quinazolin-2-yl)(3-methylpiperazin-1-yl)methanone hydrochloride at 2.5 mg/kg, iv measured upto 24 hrs by LC/MS/MS analysis; type: ADME, organism-based; parameters: route intravenous, dose 2.5 mg/kg, time <=24; conditions: in vivo
[19] = Chemical stability of the compound in pH 6.8 simulated intestinal fluid assessed as compound remaining measured after 2 hrs by HPLC analysis; type: physicochemical
[20] = Half life in Wistar rat assessed as (R)-(6-chloro-4-(5-cyclopropyl-1H-pyrazol-3-ylamino)quinazolin-2-yl)(3-methylpiperazin-1-yl)methanone hydrochloride at 13.5 mg/kg, po measured upto 24 hrs by LC/MS/MS analysis; type: ADME, organism-based; conditions: in vivo
[21] = Oral bioavailability in Wistar rat assessed as (R)-(6-chloro-4-(5-cyclopropyl-1H-pyrazol-3-ylamino)quinazolin-2-yl)(3-methylpiperazin-1-yl)methanone hydrochloride at 13.5 mg/kg measured upto 24 hrs by LC/MS/MS analysis; type: ADME, organism-based; conditions: in vivo
[22] = Tmax in Wistar rat assessed as (R)-(6-chloro-4-(5-cyclopropyl-1H-pyrazol-3-ylamino)quinazolin-2-yl)(3-methylpiperazin-1-yl)methanone hydrochloride at 13.5 mg/kg, po measured upto 24 hrs by LC/MS/MS analysis; type: ADME, organism-based; conditions: in vivo
[23] = Chemical stability of the compound in pH 7.4 PBS buffer assessed as compound remaining measured after 2 hrs by HPLC analysis; type: physicochemical; conditions: read-out: Stabilty

- AUC [1]: 129.7 ng·h/mL
- Vd [3]: 21.6 L/kg
- Cmax [4]: 31.5 ng/mL
- t1/2 [5]: 7.1 h
- AUC [8]: 1173.5 ng·h/mL
- Drug metabolism [9]: 89.9%
- remaining at 1 h [11]: 14%
- remaining at 2 h [14]: 6.1%
- AUC [16]: 470.8 ng·h/mL
- C0 [17]: 4130 ng/mL
- AUC [18]: 1124.8 ng·h/mL
- t1/2 [20]: 20.1 h
- F [21]: 7.55%
- Tmax [22]: 4.98 min
- remaining at 2 h [23]: 93.5%
SMILES: CC(C)C(=O)OCOC(=O)N1CCN(C(=O)c2nc(Nc3cc(C4CC4)[nH]n3)c3cc(Cl)ccc3n2)C[C@H]1C
- Activity [2]: Non-Toxic
- inhibition in vivo at 25 mg/kg (B16-F10 [6]): 51%
- inhibition in vivo at 50 mg/kg (B16-F10 [7]): 63%
- inhibition in vivo at 50 mg/kg (HCT-116 [10]): 65%
- Activity [12]: Non-Toxic
- Stability [13]: 90%
- inhibition in vivo at 25 mg/kg (HCT-116 [15]): 54%
- Stability [19]: 46%
